Laboratory results reported in US9855226B2 (Relmada Therapeutics, Inc., priority 2012, dated 2018).

Columns and labels:
[1] = molecular target: T1, N-methyl-D-aspartate (NMDA) receptor (Rattus norvegicus, UniProt P35439); details: cited from earlier work
T1 construct: N-methyl-D-aspartate (NMDA) receptor in rat forebrain and spinal cord

[2] = test system: patients with chronic pain; details: average of eight patients
[3] = test system: patients with chronic pain
[4] = test system: relatively refractory population with major depression; details: single dose; cited from earlier work
[5] = test system: subjects with major depression; details: single dose, 8 subjects; cited from earlier work
male Wistar rats = details: single dose; cited from earlier work
[6] = day 12 of d-methadone 40 mg every 12 hours
[7] = 8 patients that completed and 1 removed, 40 mg PO q12 hr

## CCC(=O)C(C[C@H](C)N(C)C)(c1ccccc1)c1ccccc1 [d-methadone]
[1]
  NMDA receptor antagonism: NMDA antagonists
[2]; baseline (day 1)
  Anxiety, Baseline, average score: 2.5
  Drowsiness, Baseline, average score: 4.1
  Pain, Baseline, average score: 4.1
  Tiredness, Baseline, average score: 5.9
[2]; [6]
  Anxiety, Day 12, average score: 1.5
  Drowsiness, Day 12, average score: 2.9
  Pain, Day 12, average score: 4.1
  Tiredness, Day 12, average score: 3.6
[3]; 40 mg PO Q 12 hours for 12 days, patients with chronic pain and multiple co morbidities
  Tolerability: well tolerated
[3]; [7]
  Back pain: # of patients: 1
  Headache (first line): # of patients: 1
  Headache (second line): # of patients: 1
  Somnolence (Neurology): # of patients: 2
  Tremor (Neurology): # of patients: 1
[3]; CTCAE v3.0
  Back pain: Attribution: 3
  Back pain: Grade (1-5): 1
  Headache (first line): Attribution: 3
  Headache (first line): Grade (1-5): 1
  Headache (second line): Attribution: 4
  Headache (second line): Grade (1-5): 1
  Somnolence (Neurology): Attribution: 3
  Somnolence (Neurology): Grade (1-5): 2
  Tremor (Neurology): Attribution: 3
  Tremor (Neurology): Grade (1-5): 1
[3]; very sick patients with severe cancer pain
  Patients' perception of analgesia: recognized it as an effective analgesic

## CNC1(c2ccccc2Cl)CCCCC1=O (stereo not shown) [ketamine]
[4]
  Duration of antidepressant response (relatively sustained): 1 week
  Time to antidepressant response (rapid): 110 min
[5]
  Antidepressant effect: rapid and short-lived antidepressant effect
Male Wistar rats
  Duration of interference with the induction of behavioral despair: up to 10 days

## CCC(=O)C(C[C@@H](C)N(C)C)(c1ccccc1)c1ccccc1 [l-methadone, reference compound]
[1]
  NMDA receptor antagonism: NMDA antagonists
